Experiments:
[1] = system: green foxtail; test: Test Example 5: herbicidal effect by foliage application, plastic box (Table 20, symbol G); format: in vivo, green foxtail (Setaria viridis); settings: amount of applied herbicide 320 g/ha; foliage application after 14-day growth; evaluated three weeks after application
Outline: (§1)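 Sow seeds spot-wise in sterilized diluvial soil; cover with ~1.5 cm soil. Grow 14 days in greenhouse, 25° C. to 30° C. Spray foliage with emulsion diluted to predetermined amount. Rate effect after 3 weeks.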

[2] = system: windgrass; test: Test Example 5: herbicidal effect by foliage application, plastic box (Table 20, symbol L); format: in vivo, windgrass (Apera spica-venti); settings: amount of applied herbicide 320 g/ha; foliage application after 14-day growth; evaluated three weeks after application
Outline: as §1

[3] = system: persian speedwell; test: Test Example 5: herbicidal effect by foliage application, plastic box (Table 20, symbol R); format: in vivo, Persian speedwell (Veronica persica); settings: amount of applied herbicide 320 g/ha; foliage application after 14-day growth; evaluated three weeks after application
Outline: as §1

[4] = system: barnyard grass; test: Test Example 5: herbicidal effect by foliage application, plastic box (Table 20, symbol H); format: in vivo, barnyard grass (Echinochloa crus-galli); settings: amount of applied herbicide 320 g/ha; foliage application after 14-day growth; evaluated three weeks after application
Outline: as §1

[5] = system: rice flat sedge; test: Test Example 3: herbicidal effect by foliage application, Wagner pot (Table 18, symbol E); format: in vivo, rice flat sedge (Cyperus iria); settings: 320 g/ha
Outline: (§2)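 Plants were sown in alluvial soil held under 0.1–0.5 cm standing water and grown 14 days in a greenhouse at 25–30 °C. An emulsifiable formulation, water-diluted to the set dose, was then sprayed onto the foliage, and effects were scored three weeks later using previously defined criteria.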

[6] = system: blackgrass; test: Test Example 5: herbicidal effect by foliage application, plastic box (Table 20, symbol J); format: in vivo, blackgrass (Alopecurus myosuroides); settings: amount of applied herbicide 320 g/ha; foliage application after 14-day growth; evaluated three weeks after application
Outline: as §1

[7] = system: Italian ryegrass; test: Test Example 5: herbicidal effect by foliage application, plastic box (Table 20, symbol K); format: in vivo, Italian ryegrass (Lolium multiflorum); settings: amount of applied herbicide 320 g/ha; foliage application after 14-day growth; evaluated three weeks after application
Outline: as §1

[8] = system: southern crabgrass; test: Test Example 5: herbicidal effect by foliage application, plastic box (Table 20, symbol F); format: in vivo, southern crabgrass (Digitaria ciliaris); settings: amount of applied herbicide 320 g/ha; foliage application after 14-day growth; evaluated three weeks after application
Outline: as §1

[9] = system: redroot pigweed; test: Test Example 5: herbicidal effect by foliage application, plastic box (Table 20, symbol N); format: in vivo, redroot pigweed (Amaranthus retroflexus); settings: amount of applied herbicide 320 g/ha; foliage application after 14-day growth; evaluated three weeks after application
Outline: as §1

[10] = system: barnyard grass; test: Test Example 3: herbicidal effect by foliage application, Wagner pot (Table 18, symbol H); format: in vivo, barnyard grass (Echinochloa crus-galli); settings: 320 g/ha
Outline: as §2

[11] = system: velvetleaf; test: Test Example 5: herbicidal effect by foliage application, plastic box (Table 20, symbol M); format: in vivo, velvetleaf (Abutilon theophrasti); settings: amount of applied herbicide 320 g/ha; foliage application after 14-day growth; evaluated three weeks after application
Outline: as §1

[12] = system: Chinese sprangletop; test: Test Example 3: herbicidal effect by foliage application, Wagner pot (Table 18, symbol D); format: in vivo, chinese sprangletop (Leptochloa chinensis); settings: 320 g/ha
Outline: as §2

[13] = system: wild oat; test: Test Example 5: herbicidal effect by foliage application, plastic box (Table 20, symbol I); format: in vivo, wild oat (Avena fatua); settings: amount of applied herbicide 320 g/ha; foliage application after 14-day growth; evaluated three weeks after application
Outline: as §1

[14] = system: lambsquarters; test: Test Example 5: herbicidal effect by foliage application, plastic box (Table 20, symbol O); format: in vivo, lambsquarters (Chenopodium album); settings: amount of applied herbicide 320 g/ha; foliage application after 14-day growth; evaluated three weeks after application
Outline: as §1

[15] = system: chickweed; test: Test Example 5: herbicidal effect by foliage application, plastic box (Table 20, symbol P); format: in vivo, common chickweed (Stellaria media); settings: amount of applied herbicide 320 g/ha; foliage application after 14-day growth; evaluated three weeks after application
Outline: as §1

| Structure (SMILES) | Herbicidal effect by foliage application, G: green foxtail [1] | Herbicidal effect by foliage application, L: windgrass [2] | Herbicidal effect by foliage application, R: persian speedwell [3] | Herbicidal effect by foliage application, H: barnyard grass [4] | herbicidal effect on rice flat sedge (E) [5] | Herbicidal effect by foliage application, J: blackgrass [6] | Herbicidal effect by foliage application, K: Italian ryegrass [7] | Herbicidal effect by foliage application, F: southern crabgrass [8] | Herbicidal effect by foliage application, N: redroot pigweed [9] | herbicidal effect on barnyard grass (H) [10] | Herbicidal effect by foliage application, M: velvetleaf [11] | herbicidal effect on Chinese sprangletop (D) [12] | Herbicidal effect by foliage application, I: wild oat [13] | Herbicidal effect by foliage application, O: lambsquarters [14] | Herbicidal effect by foliage application, P: chickweed [15] |
| --- | --- | --- | --- | --- | --- | --- | --- | --- | --- | --- | --- | --- | --- | --- | --- |
| CCCC(=O)Oc1c(C)nn(C)c(=O)c1-c1c(-c2ccc(OC)cc2)sc2cc(Cl)c(Cl)cc12 [5-044] | 0 (Herbicidal rate of 5% or less (almost no effect)) | 0 (Herbicidal rate of 5% or less (almost no effect)) | 4 (Herbicidal rate of 70% or more and less than 90%) | 0 (Herbicidal rate of 5% or less (almost no effect)) | 3 (Herbicidal rate of 40% or more and less than 70%) | 0 (Herbicidal rate of 5% or less (almost no effect)) | 0 (Herbicidal rate of 5% or less (almost no effect)) | 0 (Herbicidal rate of 5% or less (almost no effect)) | 0 (Herbicidal rate of 5% or less (almost no effect)) | 3 (Herbicidal rate of 40% or more and less than 70%) | 1 (Herbicidal rate of 5% or more and less than 20%) | 3 (Herbicidal rate of 40% or more and less than 70%) | 0 (Herbicidal rate of 5% or less (almost no effect)) | 3 (Herbicidal rate of 40% or more and less than 70%) | 5 (Herbicidal rate of 90% or more (almost completely withered)) |
| Cc1nn(C)c(=O)c(-c2c(-c3ccc(C(F)(F)F)cc3)sc3cc(Cl)c(Cl)cc23)c1O [5-047] | 0 (Herbicidal rate of 5% or less (almost no effect)) | 2 (Herbicidal rate of 20% or more and less than 40%) | 0 (Herbicidal rate of 5% or less (almost no effect)) | 0 (Herbicidal rate of 5% or less (almost no effect)) | 0 (Herbicidal rate of 5% or less (almost no effect)) | 0 (Herbicidal rate of 5% or less (almost no effect)) | 0 (Herbicidal rate of 5% or less (almost no effect)) | 0 (Herbicidal rate of 5% or less (almost no effect)) | 3 (Herbicidal rate of 40% or more and less than 70%) | 3 (Herbicidal rate of 40% or more and less than 70%) | 0 (Herbicidal rate of 5% or less (almost no effect)) | 0 (Herbicidal rate of 5% or less (almost no effect)) | 0 (Herbicidal rate of 5% or less (almost no effect)) | 1 (Herbicidal rate of 5% or more and less than 20%) | 0 (Herbicidal rate of 5% or less (almost no effect)) |

Reference: US20230085307A1, “PYRIDAZINONE COMPOUND AND HERBICIDE” (NISSAN CHEMICAL CORPORATION, priority 2019, published 2023)
